“Also recorded” adds a separate entry of the source.
What was measured:
Assay type in all cases: in vivo, mouse
[1] = system: FKRP-P448L mutant dystrophic mice; assay: Treadmill exercise in FKRP P448L mutant mice; settings: 1 year treatment, vs saline-treated cohort
Source text: FIG. 6. […] Saline treated control, column 1; C57 normal control, column 8).
(§1) This invention applies tamoxifen and raloxifene for clinical use in FKRP mutant dystrophic mouse models for the treatment of dystroglycanopathies, specifically those caused by mutations in the FKRP gene. Mutations in the FKRP gene cause muscular dystrophy with the lack of functional glycosylation of alpha-dystroglycan (α-DG) as the characteristic biochemical marker in the diseased tissues. Mouse models with the FKRP mutations present in patients show the same biochemical feature as patients' tissues, most prominently in muscles (Chan Y M, Hum Mol Genet 2010, 19(20): 3995-4006; Blaeser A, Hum Genet 2013, 132(8): 923-934). […] Histologically, the diseased muscles undergo continuous degeneration as indicated by the presence of degenerating muscle fibers, variation in fiber size, presence of centrally nucleated fibers (a result of regeneration which is the consequence of muscle damage), inflammatory cells and an increase in non-muscle fiber connective tissues (FIG. 1). […] The best results were obtained with 5-10 mg/kg tamoxifen and 50 mg/kg raloxifene, which would be equivalent to human equivalent dose (HED) of about 0.5 mg/kg for tamoxifen and 5 mg/kg for raloxifene.

[2] = system: FKRP-P448L mutant dystrophic mice; assay: Overall therapeutic effect (muscle pathology and function) on feeding FKRP-P448L mutant mice; settings: for dose giving the best results / muscle pathology and function: feeding 5 days a week; for dose relation of the therapeutic effects: tamoxifen 2, 5, 10, 50 mg/kg/day, raloxifene 10, 50, 100 mg/kg/day
Source text: as §1, with “raloxifene. […] The improvement in muscle function and pathology is even greater after 1 year treatment.” for “raloxifene.”

[3] = system: FKRP-P448L mutant dystrophic mice; assay: Grip force measurement in FKRP P448L mutant mice
Source text: FIG. 3. […] C57 normal mice muscles as controls. Saline, mice treated with saline as negative control.
FIG. 5. […] Saline treated control, column 1; C57 normal control, column 8).
as §1

[4] = system: FKRP-P448L mutant dystrophic mice; assay: Muscle histology (H&E staining) in FKRP P448L mutant mice; settings: for fibrotic streaks in cardiac muscle / histology (H&E) / inflammation, degeneration and fibrotic tissue in skeletal muscle: 1 year of treatment, 5 day a week; for inflammation, degeneration and fibrotic tissue in muscle / muscle pathology (H&E): 6 month treatment, 5 days a week, 10 mg/kg, vs saline
Procedure: FIG. 1. […] C57 normal mouse muscles were used as controls. Saline, mice treated with saline as negative control. […] Hematoxylin and eosin (H&E) staining was used.
FIG. 4. […] H&E staining was used. The therapeutic effect is best seen with 10 mg/kg tamoxifen treatment. […] C57 normal mouse muscles were used as controls. P448-Saline, mice treated with saline as negative control.
as §1, with “raloxifene. […] The improvement in muscle function and pathology is even greater after 1 year treatment.” for “raloxifene.”

[5] = system: glycosylated alpha-dystroglycan (α-DG); assay: Immunohistochemistry with monoclonal antibody IIH6 on muscles of treated FKRP mutant mice
Source text: FIG. 2. […] C57 normal mouse muscles were used as controls. Saline, mice treated with saline as negative control. The positive staining is seen surrounding the fiber membrane and a few revertant fibers are observed in the saline treated controls.
as §1, with “raloxifene. […] The improvement in muscle function and pathology is even greater after 1 year treatment.” for “raloxifene.”

[6] = 50 mg/kg/day, 1 year treatment; vs saline-treated cohort
[7] = 6 months of treatment, 5 days a week, 10 mg/kg; vs saline
[8] = 2 mg/kg/day, 1 year treatment; vs saline-treated cohort

For `O=C(c1ccc(OCCN2CCCCC2)cc1)c1c(-c2ccc(O)cc2)sc2cc(O)ccc12` [raloxifene], the treadmill running distance ([1]; 50 mg/kg/day) was “Significant improvement”, the treadmill running time ([1]; 50 mg/kg/day) was “Significant improvement” and the treadmill running distance ([1]; 100 mg/kg/day) was “Significant improvement”. The treadmill running time ([1]; 100 mg/kg/day) was “Significant improvement”, the “dose giving the best results” value [2] was 50 mg/kg and the “muscle pathology and function” value [2] was “significantly improved muscle pathology and function”. The “dose relation of the therapeutic effects” value [2] was “dose-related with increasing efficacy”, the grip force measurement [3, 6] was “Significant improvement” and the grip force measurement ([3]; 100 mg/kg/day, 1 year treatment; vs saline-treated cohort) was “Significant improvement”. For the same molecule, the “muscle function by grip force measurement” value [3, 7] was “improve muscle function”, the “fibrotic streaks in cardiac muscle” value ([4]; 50 mg/kg/day) was “Reduced fibrotic streaks” and the “histology (H&E)” value ([4]; 50 mg/kg/day) was “Improvement in histology”. The “inflammation, degeneration and fibrotic tissue in skeletal muscle” value ([4]; 50 mg/kg/day) was “Reduction”, the “inflammation, degeneration and fibrotic tissue in muscle” value [4] was “Reduction” and the “muscle pathology (H&E)” value [4] was “significantly improve muscle pathology”. The “levels of glycosylated alpha-dystroglycan (α-DG) detected with IIH6” value [5, 7] was “enhance the levels of glycosylated alpha-dystroglycan” and the “number of IIH6 positive fibers” value [5, 7] was “clearly increased”.
In the case of `CC/C(=C(\c1ccccc1)c1ccc(OCCN(C)C)cc1)c1ccccc1` [tamoxifen], the treadmill running distance ([1]; 2 mg/kg/day) was “Significant improvement”, the treadmill running time ([1]; 2 mg/kg/day) was “did not reach significance” and the treadmill running distance ([1]; 10 mg/kg/day) was “Significant improvement”. The treadmill running time ([1]; 10 mg/kg/day) was “Significant improvement”, the treadmill running distance ([1]; 50 mg/kg/day) was “Significant improvement” and the treadmill running time ([1]; 50 mg/kg/day) was “Significant improvement”. The “dose giving the best results” value [2] was 5 to 10 mg/kg, the “muscle pathology and function” value [2] was “significantly improved muscle pathology and function” and the “dose relation of the therapeutic effects” value [2] was “dose-related with increasing efficacy”. The “grip force measurement (other than hindlimb)” value [3, 8] was “Significant improvement”, the “grip force measurement, hindlimb” value [3, 8] was “did not reach significance” and the grip force measurement ([3]; 10 mg/kg/day, 1 year treatment; vs saline-treated cohort) was “Significant improvement”. The grip force measurement [3, 6] was “Significant improvement”, the “muscle function by grip force measurement” value ([3]; 6 months of treatment, 5 days a week, 10 mg/kg; vs saline; 10 mg/kg) was “improved muscle function” and the “fibrotic streaks in cardiac muscle” value ([4]; 10 mg/kg/day) was “Reduced fibrotic streaks”. For the same molecule, the “histology (H&E)” value ([4]; 10 mg/kg/day) was “Improvement in histology”, the “inflammation, degeneration and fibrotic tissue in skeletal muscle” value ([4]; 10 mg/kg/day) was “Reduction” and the “inflammation, degeneration and fibrotic tissue in muscle” value [4] was “Reduction”. For the same molecule, the “muscle pathology (H&E)” value [4] was “significantly improve muscle pathology”, the “levels of glycosylated alpha-dystroglycan (α-DG) detected with IIH6” value ([5]; 6 months of treatment, 5 days a week, 10 mg/kg, vs saline) was “enhance the levels of glycosylated alpha-dystroglycan; also recorded: enhanced expression of alpha-DG” and the “number of IIH6 positive fibers” value [5, 7] was “clearly increased”.
